Measured values: patent US11446287B2, “Compounds and methods for EP300 or CBP modulation and indications therefor” (Opna Immuno-Oncology SA, priority 2019, dated 2022)
pIC50: −log10 of the molar value.

Molecular target: T1, Recombinant human BRD4 containing dual bromodomains (BRD4-BD12 (1-477)) (Homo sapiens, UniProt O60885)
T1 construct: Recombinant human BRD4 containing dual bromodomains (BRD4-BD12 (1-477)); made in house; host or cells: E. coli BL21-CodonPlus (DE3), modified pET vector
Test: BRD4 Alphascreen binding assay
Outline: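 His-tagged human BRD4 tandem bromodomains (1-477, E. coli) incubated 1 h at room temperature with biotinylated tetra-acetylated H4 (1-21) peptide and compound in HEPES pH 7.5 buffer with 2 mM DTT. AlphaScreen signal read 30 min after adding beads (7.5 μg/ml); IC50 from four-parameter fit after normalization to controls.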

Structure (SMILES) | pIC50
COc1ccc(C(=O)O)cc1-c1c(C(F)(F)F)n([C@@H](C)c2ccccn2)c2cc(-c3c(C)noc3C)cnc12 [P-0239, (S)-3-(6-(3,5-dimethylisoxazol-4-yl)-1-(1-(pyridin-2-yl)ethyl)-2-(trifluoromethyl)-1H-pyrrolo[3,2-b]pyridin-3-yl)-4-methoxybenzoic acid] | 3.00 to 5.10
CCOc1cc(C(=O)O)cc(OCC)c1-n1cc(C2=CCC(F)(F)CC2)c2ncc(-c3c(C)noc3C)cc21 [P-0208, 4-(3-(4,4-difluorocyclohex-1-en-1-yl)-6-(3,5-dimethylisoxazol-4-yl)-1H-pyrrolo[3,2-b]pyridin-1-yl)-3,5-diethoxybenzoic acid] | 5.10 to 6.00
CCOc1cc(C(=O)O)cc(OCC)c1-n1cc(-c2cncc(Cl)c2)c2ncc(-c3c(C)noc3C)cc21 [P-0193, 4-(3-(5-chloropyridin-3-yl)-6-(3,5-dimethylisoxazol-4-yl)-1H-pyrrolo[3,2-b]pyridin-1-yl)-3,5-diethoxybenzoic acid] | 5.10 to 6.00
CCOc1cc(C(=O)O)cc(OCC)c1-n1cc(-c2cccnc2)c2ncc(-c3c(C)noc3C)cc21 [P-0173, 4-(6-(3,5-dimethylisoxazol-4-yl)-3-(pyridin-3-yl)-1H-pyrrolo[3,2-b]pyridin-1-yl)-3,5-diethoxybenzoic acid] | 5.10 to 6.00
Cc1noc(C)c1-c1cnc2c(c1)c(-c1ccnc(C(=O)O)c1)cn2C(c1ccccn1)C1CCCC1 (stereo not shown) [P-0017, 4-(1-(cyclopentyl(pyridin-2-yl)methyl)-5-(3,5-dimethylisoxazol-4-yl)-1H-pyrrolo[2,3-b]pyridin-3-yl)picolinic acid] | 5.10 to 6.00
CCOc1cc(C(=O)O)cc(OCC)c1-n1cc(-c2ccnc(F)c2)c2ncc(-c3c(C)noc3C)cc21 [P-0222, 4-(6-(3,5-dimethylisoxazol-4-yl)-3-(2-fluoropyridin-4-yl)-1H-pyrrolo[3,2-b]pyridin-1-yl)-3,5-diethoxybenzoic acid] | 5.10 to 6.00
Cc1noc(C)c1-c1cnc2c(c1)c(-c1ccncc1)cn2C(c1ccccn1)C1CCCC1 (stereo not shown) [P-0019, 4-(1-(cyclopentyl(pyridin-2-yl)methyl)-3-(pyridin-4-yl)-1H-pyrrolo[2,3-b]pyridin-5-yl)-3,5-dimethylisoxazole] | 5.10 to 6.00
Cc1noc(C)c1-c1cnc2c(c1)c(-c1ccc(C(=O)O)cc1C#CC1CC1)cn2[C@@H](C)c1ccccn1 [P-0178, (S)-3-(cyclopropylethynyl)-4-(5-(3,5-dimethylisoxazol-4-yl)-1-(1-(pyridin-2-yl)ethyl)-1H-pyrrolo[2,3-b]pyridin-3-yl)benzoic acid] | 3.00 to 5.10
CCOc1cc(C(=O)O)cc(OCC)c1-n1cc(-c2ccc(C3CC3)nc2)c2ncc(-c3c(C)noc3C)cc21 [P-0192, 4-(3-(6-cyclopropylpyridin-3-yl)-6-(3,5-dimethylisoxazol-4-yl)-1H-pyrrolo[3,2-b]pyridin-1-yl)-3,5-diethoxybenzoic acid] | 5.10 to 6.00
CCOc1cc(C(=O)O)cc(OCC)c1-n1cc(-c2ccc(OC)cc2F)c2ncc(-c3c(C)noc3C)cc21 [P-0194, 4-(6-(3,5-dimethylisoxazol-4-yl)-3-(2-fluoro-4-methoxyphenyl)-1H-pyrrolo[3,2-b]pyridin-1-yl)-3,5-diethoxybenzoic acid] | 5.10 to 6.00
Cc1noc(C)c1-c1cnc2c(c1)c(-c1cccc(CC(=O)O)c1)cn2C(c1ccccn1)C1CCCC1 (stereo not shown) [P-0018, 2-(3-(1-(cyclopentyl(pyridin-2-yl)methyl)-5-(3,5-dimethylisoxazol-4-yl)-1H-pyrrolo[2,3-b]pyridin-3-yl)phenyl)acetic acid] | 5.10 to 6.00
CCOc1cc(C(=O)O)cc(OCC)c1-n1cc(-c2ccc(C#N)cc2F)c2ncc(-c3c(C)noc3C)cc21 [P-0217, 4-(3-(4-cyano-2-fluorophenyl)-6-(3,5-dimethylisoxazol-4-yl)-1H-pyrrolo[3,2-b]pyridin-1-yl)-3,5-diethoxybenzoic acid] | 5.10 to 6.00
Cc1noc(C)c1-c1cnc2c(c1)c(-c1ccc(C(=O)O)cc1OC(F)(F)F)cn2CCN1CCOCC1 [P-0191, 4-(5-(3,5-dimethylisoxazol-4-yl)-1-(2-morpholinoethyl)-1H-pyrrolo[2,3-b]pyridin-3-yl)-3-(trifluoromethoxy)benzoic acid] | 3.00 to 5.10
Cc1cc(C(=O)O)ccc1-c1c(C(F)(F)F)n([C@@H](C)c2ccccn2)c2cc(-c3c(C)noc3C)cnc12 [P-0235, (S)-4-(6-(3,5-dimethylisoxazol-4-yl)-1-(1-(pyridin-2-yl)ethyl)-2-(trifluoromethyl)-1H-pyrrolo[3,2-b]pyridin-3-yl)-3-methylbenzoic acid] | 3.00 to 5.10
Cc1noc(C)c1-c1cnc2c(-c3ccc(F)cc3F)cn(-c3ccc(C(=O)O)cc3OC(F)(F)F)c2c1 [P-0229, 4-(3-(2,4-difluorophenyl)-6-(3,5-dimethylisoxazol-4-yl)-1H-pyrrolo[3,2-b]pyridin-1-yl)-3-(trifluoromethoxy)benzoic acid] | 5.10 to 6.00
Cc1noc(C)c1-c1cnc2c(c1)c(-c1ccc(C(=O)O)cc1OC1CCC1)cn2[C@@H](C)c1ccccn1 [P-0179, (S)-3-cyclobutoxy-4-(5-(3,5-dimethylisoxazol-4-yl)-1-(1-(pyridin-2-yl)ethyl)-1H-pyrrolo[2,3-b]pyridin-3-yl)benzoic acid] | 3.00 to 5.10

Structure (SMILES) | pIC50
Cc1noc(C)c1-c1cnc2c(c1)c(-c1ccc(C(=O)O)cc1OC(F)(F)F)cn2-c1ncccc1Cl [P-0183, 4-(1-(3-chloropyridin-2-yl)-5-(3,5-dimethylisoxazol-4-yl)-1H-pyrrolo[2,3-b]pyridin-3-yl)-3-(trifluoromethoxy)benzoic acid] | 3.00 to 5.10
CCOc1cc(C(=O)O)cc(OCC)c1-n1cc(-c2ccc(C(=O)NC3CC3)cc2)c2ncc(-c3c(C)noc3C)cc21 [P-0218, 4-(3-(4-(cyclopropylcarbamoyl)phenyl)-6-(3,5-dimethylisoxazol-4-yl)-1H-pyrrolo[3,2-b]pyridin-1-yl)-3,5-diethoxybenzoic acid] | 5.10 to 6.00
Cc1noc(C)c1-c1cnc2c(c1)c(-c1ccc(C(=O)O)cc1OCC(F)(F)F)cn2C(C1CC1)C1CC1 [P-0214, 4-(1-(dicyclopropylmethyl)-5-(3,5-dimethylisoxazol-4-yl)-1H-pyrrolo[2,3-b]pyridin-3-yl)-3-(2,2,2-trifluoroethoxy)benzoic acid] | 3.00 to 5.10
Cc1noc(C)c1-c1cnc2c(-c3cn(C)nc3C3CC3)c(C(F)(F)F)n([C@@H](C)c3ccccn3)c2c1 [P-0237, (S)-4-(3-(3-cyclopropyl-1-methyl-1H-pyrazol-4-yl)-1-(1-(pyridin-2-yl)ethyl)-2-(trifluoromethyl)-1H-pyrrolo[3,2-b]pyridin-6-yl)-3,5-dimethylisoxazole] | 5.10 to 6.00
CCOc1cccc(Cl)c1-n1cc(-c2ccccc2)c2ncc(-c3c(C)noc3C)cc21 [P-0224, 4-(1-(2-chloro-6-ethoxyphenyl)-3-phenyl-1H-pyrrolo[3,2-b]pyridin-6-yl)-3,5-dimethylisoxazole] | 5.10 to 6.00
Cc1noc(C)c1-c1cnc2c(c1)c(-c1ccc(C(=O)O)cc1)cn2C(C)c1ccc(F)cn1 (stereo not shown) [P-0014, 4-(5-(3,5-dimethylisoxazol-4-yl)-1-(1-(5-fluoropyridin-2-yl)ethyl)-1H-pyrrolo[2,3-b]pyridin-3-yl)benzoic acid] | 3.00 to 5.10
Cc1noc(C)c1-c1cnc2c(c1)c(-c1c(Cl)cc(C(=O)O)cc1Cl)cn2[C@@H](C)c1ccccn1 [P-0197, (S)-3,5-dichloro-4-(5-(3,5-dimethylisoxazol-4-yl)-1-(1-(pyridin-2-yl)ethyl)-1H-pyrrolo[2,3-b]pyridin-3-yl)benzoic acid] | 3.00 to 5.10
CCOc1ccc(C(=O)O)cc1-n1cc(-c2ccccc2)c2ncc(-c3c(C)noc3C)cc21 [P-0225, 3-(6-(3,5-dimethylisoxazol-4-yl)-3-phenyl-1H-pyrrolo[3,2-b]pyridin-1-yl)-4-ethoxybenzoic acid] | 5.10 to 6.00
Cc1ccccc1-n1cc(-c2ccc(C(=O)O)cc2OC(F)(F)F)c2cc(-c3c(C)noc3C)cnc21 [P-0231, 4-(5-(3,5-dimethylisoxazol-4-yl)-1-(o-tolyl)-1H-pyrrolo[2,3-b]pyridin-3-yl)-3-(trifluoromethoxy)benzoic acid] | 3.00 to 5.10
CCOc1cc(C(=O)O)cc(OCC)c1-n1cc(-c2cnn(C)c2)c2ncc(-c3c(C)noc3C)cc21 [P-0195, 4-(6-(3,5-dimethylisoxazol-4-yl)-3-(1-methyl-1H-pyrazol-4-yl)-1H-pyrrolo[3,2-b]pyridin-1-yl)-3,5-diethoxybenzoic acid] | 5.10 to 6.00
Cc1noc(C)c1-c1cnc2c(c1)c(-c1ccc(C(=O)O)cc1C1CC1)cn2[C@@H](C)c1ccccn1 [P-0181, (S)-3-cyclopropyl-4-(5-(3,5-dimethylisoxazol-4-yl)-1-(1-(pyridin-2-yl)ethyl)-1H-pyrrolo[2,3-b]pyridin-3-yl)benzoic acid] | 3.00 to 5.10
Cc1noc(C)c1-c1cnc2c(c1)c(-c1ccc(C(=O)O)cc1OC(F)(F)F)cn2C(CC#N)C1CC1 (stereo not shown) [P-0199, 4-(1-(2-cyano-1-cyclopropylethyl)-5-(3,5-dimethylisoxazol-4-yl)-1H-pyrrolo[2,3-b]pyridin-3-yl)-3-(trifluoromethoxy)benzoic acid] | 3.00 to 5.10
CCOc1cc(C(=O)O)cc(OCC)c1-n1cc(-c2ccc(F)cc2)c2ncc(-c3c(C)noc3C)cc21 [P-0184, 4-(6-(3,5-dimethylisoxazol-4-yl)-3-(4-fluorophenyl)-1H-pyrrolo[3,2-b]pyridin-1-yl)-3,5-diethoxybenzoic acid] | 5.10 to 6.00
COC(=O)c1cc(OC)c(-n2cc(-c3ccccc3)c3ncc(-c4c(C)noc4C)cc32)c(OC)c1 [P-0219, methyl 4-(6-(3,5-dimethylisoxazol-4-yl)-3-phenyl-1H-pyrrolo[3,2-b]pyridin-1-yl)-3,5-dimethoxybenzoate] | 5.10 to 6.00
Cc1ccncc1-n1cc(-c2ccc(C(=O)O)cc2OC(F)(F)F)c2cc(-c3c(C)noc3C)cnc21 [P-0189, 4-(5-(3,5-dimethylisoxazol-4-yl)-1-(4-methylpyridin-3-yl)-1H-pyrrolo[2,3-b]pyridin-3-yl)-3-(trifluoromethoxy)benzoic acid] | 3.00 to 5.10
